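All cell lines were grown in 96-well plates and treated with compound for 48 hours. The concentration for full growth arrest is given as TGI.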
How the values were obtained:
Assay in all cases: NCI tumour cell line growth inhibition, 48 h
[1] = system: 786-0 renal
[2] = system: A498 renal
[3] = system: A549 NSCLC
[4] = system: ACHN renal
[5] = system: BT-549 breast
[6] = system: CAKI-1 renal
[7] = system: CCRF-CEM leukemia
[8] = system: COLO 205 colon
[9] = system: DU-145 prostate
[10] = system: EKVX NSCLC
[11] = system: HCC-2998 colon
[12] = system: HCT-116 colon
[13] = system: HCT-15 colon
[14] = system: HL-60(TB) leukemia
[15] = system: HOP-62 NSCLC
[16] = system: HS 578T breast
[17] = system: HT29 colon
[18] = system: IGROV1 ovarian
[19] = system: K-562 leukemia
[20] = system: KM12 colon
[21] = system: M14 melanoma
[22] = system: MALME-3M melanoma
[23] = system: MCF7 breast
[24] = system: MDA-MB-231 breast
[25] = system: MDA-MB-435
[26] = system: MDA-N
[27] = system: MOLT-4 leukemia
[28] = system: NCI-H226 lung
[29] = system: NCI-H23 lung
[30] = system: NCI-H460 lung
[31] = system: NCI-H522 lung
[32] = system: NCI/ADR-RES ovarian
[33] = system: OVCAR-3 ovarian
[34] = system: OVCAR-4 ovarian
[35] = system: OVCAR-5 ovarian
[36] = system: OVCAR-8 ovarian
[37] = system: PC-3 prostate
[38] = system: RPMI-8226 leukemia
[39] = system: RXF 393 renal
[40] = system: SF-268 CNS
[41] = system: SF-295 CNS
[42] = system: SF-539 CNS
[43] = system: SK-MEL-2 melanoma
[44] = system: SK-MEL-28 melanoma
[45] = system: SK-MEL-5 melanoma
[46] = system: SK-OV-3 ovarian
[47] = system: SN12C renal
[48] = system: SNB-19 CNS
[49] = system: SNB-75 CNS
[50] = system: SR leukemia
[51] = system: SW-620 colon
[52] = system: T-47D breast
[53] = system: TK-10 renal
[54] = system: U251 CNS
[55] = system: UACC-257 melanoma
[56] = system: UACC-62 melanoma
[57] = system: UO-31 renal

Measured: TGI

NC(Cc1c[nH]c2ccccc12)P(=O)(O)O (configuration not stated)
> 100 µM: all assays above

— PubChem BioAssay (NCI)
